Experimental data published in US20260007641A1, “PHARMACEUTICAL COMPOSITION FOR TREATING AND RESISTING BLOOD COAGULATION AND USE THEREOF” (CHENGDU SHIBEIKANG BIOMEDICAL TECHNOLOGY CO., LTD., priority 2022, published 2026).

Key:
[1] = Solubility and BCS classification of compound A; type: physicochemical
[2] = from Literature 1; cited from earlier work

Row | BCS (Biopharmaceutics Classification System) class [1] | solubility in acetone ([1]; acetone) | solubility in ethanol ([1]; ethanol) | solubility in methanol ([1]; methanol) | solubility in toluene ([1]; toluene) | solubility in water ([1]; water) | SMILES | share of clopidogrel metabolized to compound A after oral intake [2]
1 | low solubility and high permeability | very slightly soluble | slightly soluble | hardly soluble | almost insoluble | very slightly soluble | COC(=O)[C@H](c1ccccc1Cl)N1CC[C@@H]2SC(=O)C=C2C1 [Compound A, methyl(S)-2-(2-chlorophenyl)-2-((S)-2-oxo-2,6,7,7a-tetrahydrothiophene [3,2-c]pyridin-5 (4H)-yl)acetate] | –
2 | – | – | – | – | – | – | COC(=O)[C@H](c1ccccc1Cl)N1CCc2sccc2C1 [clopidogrel] | 15%
